The values below come from ChEMBL document CHEMBL1127005, “Design of novel agents for the therapy of non-insulin dependent diabetes mellitus (NIDDM)” (Bioorg Med Chem Lett, 1993).

For the experiment, the species on record is Rattus norvegicus. Briefly: Inhibition against gluconeogenesis was expressed as effect of compound on rat hepatocyte glucose production from 10 mM lactate/1 mM pyruvate/0.5 mM oleate. It is filed as functional.

In the case of `C=C1[C@H](CCCCCCCCCCCC)[C@H]1CC(=O)O` (stereo in doubt; 4d), the IC50 (hepatocyte) was 200 µM.
As to `C=C1[C@H](CCCC)[C@H]1CC(N)=O`, it took 60 µM to reach half-maximal inhibition (Rattus norvegicus, Hepatocyte) (IC50). This counts as double-digit micromolar.
`C=C1[C@@H](CC(N)=O)[C@H]1CCCCCCCCCCCC`: under “Rattus norvegicus, Hepatocyte”, the IC50 came out at 32 µM.
Compound `C=C1[C@H](CCCC)[C@H]1CC(=O)O` gave an IC50 (Rattus norvegicus, Hepatocyte) of 30 µM.
Take `C=C1[C@@H](CC(=O)O)[C@H]1CCCCCCCC`: the midpoint of inhibition (Rattus norvegicus, Hepatocyte), the IC50, lay at 5 µM. Compared with the last compound, the IC50 is about 6-fold lower.
For the compound `C=C1[C@@H](CC(=O)O)[C@H]1CCCCCCCCCCCC`, half-maximal inhibition (Rattus norvegicus, Hepatocyte) (IC50) required 25 µM.
Take `C=C1[C@H](CCCCCCCCCCCC)[C@H]1CC(=O)O` (stereo in doubt): the midpoint of inhibition (hepatocyte), the IC50, lay at 13 µM.
As to `C=C1[C@@H](CC(N)=O)[C@H]1CCCCCCCC`, under “Rattus norvegicus, Hepatocyte”, half-maximal inhibition (IC50) required 8 µM.
Take `C=C1[C@@H](CC(N)=O)[C@H]1CCCC`: inhibition (Rattus norvegicus, Hepatocyte) was half-maximal at 4 µM (IC50).
`C=C1[C@@H](CCCCCCCCCCCC)[C@@H]1CC(=O)O` showed an IC50 (Rattus norvegicus, Hepatocyte) of 160 µM.
With `C=C1C[C@@H]1CC(N)=O`, for the setting “Rattus norvegicus, Hepatocyte”, the half-maximal inhibitory concentration (IC50) turned out to be 30 µM.
In turn, `C=C1[C@@H](CC(=O)O)[C@H]1CCCC` had a half-maximal inhibitory concentration (IC50) (Rattus norvegicus, Hepatocyte) of 15 µM. Compared with the last compound, the IC50 is about 2-fold lower.
Consider `C=C1C[C@@H]1CC(=O)O`, for which the IC50 (Rattus norvegicus, Hepatocyte) was determined as 60 µM.

For orientation: IC50 means the concentration that gives 50% inhibition. Low readings indicate greater potency, high ones weaker potency.
